In test [1] the test system is L6-myotubes. Nature of the test: Glucose uptake in differentiated L6-myotubes (Biological Example 2). The test is classed as cell-based. The settings on record: glucose uptake in differentiated L6-myotubes, compound at 10 μM, activity relative to isoproterenol at 10 μM; for Emax at 10 µM: read-out: Biological example 2 (GU). Put shortly: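 Differentiated L6 myotubes were serum-starved overnight in 0.5% fatty-acid-free BSA and then stimulated with compound or isoprenaline at 1×10^−5 M final. After 1 h 40 min cells were washed and re-dosed in glucose-free medium. Twenty minutes later, uptake of 50 nM ^3H-2-deoxyglucose over 10 min was measured by scintillation counting of NaOH lysates.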

Test [2] deals with L6-myotubes. The experiment in a line: Measurement of intracellular cAMP levels in differentiated L6-myotubes (Biological Example 3). As to conditions: intracellular cAMP in differentiated L6-myotubes, compound at 10 μM, activity relative to isoproterenol at 10 μM; for Emax at 10 µM: 0.25 h. The test is classed as cell-based. Summed up:
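Serum-starved differentiated L6 myotubes stimulated 15 min with test compound at 1×10^−5 M final (isoprenaline as reference) in HBSS with 1% BSA, 5 mM HEPES, 1 mM IBMX, pH 7.4. Cells EtOH-extracted, lysed, and intracellular cAMP measured by AlphaScreen.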
(Changes in cAMP serve as a functional read-out for many G protein-coupled receptors.)

Each structure is given as a SMILES string. Bounds are passed on as bounds.

`COc1ccc(CC23CCC([C@H](O)c4cccc(F)c4)(CC2)N3)cc1` [Compound 401, (R)-(m-fluorophenyl){4-[(p-methoxyphenyl)methyl]-7-azabicyclo[[2.2.1]]hept-1-yl}methanol]: the Emax at 10 µM in the test on L6-myotubes [1] was greater than 75%; with L6-myotubes [2] it was less than 25%.
On the same counts, the results for `CC(C)(NC[C@H](O)c1cccc(F)c1)[C@H]1CC[C@H](OCC(=O)O)CC1` [Compound 402] are 50 to 75% and less than 25%.
`O[C@@H](c1cncc(F)c1)[C@H]1CC[C@@H](Cc2ccc(Cl)cc2)N1` [Compound 403, (S)-{(2R,5S)-5-[(p-chlorophenyl)methyl]-2-pyrrolidinyl}(5-fluoro-3-pyridyl)methanol]: the Emax at 10 µM is 50 to 75% in the test on L6-myotubes [1] and less than 25% in the test on L6-myotubes [2].
Take `O[C@H](c1cncc(F)c1)[C@H]1CC[C@@H](Cc2ccc(Cl)cc2)N1` [Compound 404, (R)-{(2R,5S)-5-[(p-chlorophenyl)methyl]-2-pyrrolidinyl}(5-fluoro-3-pyridyl)methanol]: the Emax at 10 µM is greater than 75% with L6-myotubes [1] and less than 25% with L6-myotubes [2].
Take `O[C@@H](c1cncc(F)c1)[C@H]1CC[C@H](Cc2ccc(Cl)cc2)N1` [Compound 405, (S)-{(2R,5R)-5-[(p-chlorophenyl)methyl]-2-pyrrolidinyl}(5-fluoro-3-pyridyl)methanol]: the results for the Emax at 10 µM with L6-myotubes [1] and in the test on L6-myotubes [2] were greater than 75% and less than 25%, respectively.
Consider `O[C@H](c1cncc(F)c1)[C@H]1CC[C@H](Cc2ccc(Cl)cc2)N1` [Compound 406, (R)-{(2R,5R)-5-[(p-chlorophenyl)methyl]-2-pyrrolidinyl}(5-fluoro-3-pyridyl)methanol], for which the Emax at 10 µM with L6-myotubes [1] is greater than 75%; with L6-myotubes [2], less than 25%.
Regarding `CCOC(=O)CO[C@H]1CC[C@@H](C(C)(C)NC[C@H](O)c2cccc(F)c2)CC1` [Compound 407, ethyl[[(1S,4s)-4-{1-[(R)-2-(m-fluorophenyl)-2-hydroxyethylamino]-1-methylethyl}cyclohexyloxy]]acetate], the Emax at 10 µM with L6-myotubes [1] was 50 to 75%; in the test on L6-myotubes [2], less than 25%.
In the case of `CC(C)(NC[C@H](O)c1cccc(F)c1)[C@H]1CC[C@@H](OCC(=O)O)CC1` [Compound 408], the figures for the Emax at 10 µM in the test on L6-myotubes [1] and in the test on L6-myotubes [2] were 50 to 75% and less than 25%, respectively.
The corresponding values for `CCOC(=O)CO[C@H]1CC[C@H](C(C)(C)NC[C@H](O)c2cncc(F)c2)CC1` [Compound 409, ethyl[[(1R,4r)-4-{1-[(R)-2-(5-fluoro-3-pyridyl)-2-hydroxyethylamino]-1-methylethyl}cyclohexyloxy]]acetate] are greater than 75% and less than 25%.
`CO[C@H]1CC[C@H](CCC23CCC([C@@H](O)c4cccc(F)c4)(CC2)N3)CC1` [Compound 410]: the “Biological example 2 (GU)” value with L6-myotubes [1] is “++ (if it is between 75 and 50% it is denoted with ++)”. Moreover, in the test on L6-myotubes [2], the “Biological example 3 (CAMP)” value is on record as “− (if it less than 25% it is denoted with −)”.
In the case of `CO[C@H]1CC[C@H](CCC23CCC([C@@H](O)c4cccc(F)c4)(CC2)N3)CC1` [Compound 411], in the test on L6-myotubes [1], the “Biological example 2 (GU)” value was “+++ (If a compound at 10 μM shows activity of more than 75% of that of isoproterenol at 10 μM, the activity is denoted with +++)”. In the test with L6-myotubes [2], the “Biological example 3 (CAMP)” value is “++ (if it is between 75 and 50% it is denoted with ++)”.
In the case of `O[C@H](c1cccc(F)c1)C12CCC(Cc3ccc(F)cc3)(CC1)N2` [Compound 413, (R)-(m-fluorophenyl){4-[(p-fluorophenyl)methyl]-7-azabicyclo[[2.2.1]]hept-1-yl}methanol], the Emax at 10 µM is greater than 75% with L6-myotubes [1] and less than 25% in the test with L6-myotubes [2].
`CC(C)(C[C@H]1CC[C@@H](NC(=O)OC(C)(C)C)CC1)NC[C@H](O)c1cccc(C#N)n1` [Compound 414, (1R,4s)-4-{2-[(S)-2-(6-cyano-2-pyridyl)-2-hydroxyethylamino]-2-methylpropyl}cyclohexly 2-methyl-2-propanecarbamate]: the results for the Emax at 10 µM with L6-myotubes [1] and in the test on L6-myotubes [2] were 50 to 75% and less than 25%, respectively.
Turning to `CC(C)(C[C@H]1CC[C@H](N)CC1)NC[C@@H](O)c1cccc(C#N)n1` [Compound 415], the Emax at 10 µM in the test with L6-myotubes [1] was 50 to 75%; with L6-myotubes [2], less than 25%.
On to `CC(C)(C[C@H]1CC[C@@H](N)CC1)NC[C@@H](O)c1cccc(C#N)n1` [Compound 416], for which the Emax at 10 µM with L6-myotubes [1] is 50 to 75%; with L6-myotubes [2], less than 25%.
The corresponding values for `CC(C)(C[C@H]1CC[C@H](N)CC1)NC[C@H](O)c1cccc(C#N)n1` [Compound 417] are greater than 75% and 25 to 50%.
Regarding `CC(C)(C[C@H]1CC[C@@H](N)CC1)NC[C@H](O)c1cccc(C#N)n1` [Compound 418, 6-[(S)-2-{1,1-dimethyl-2-[(1s,4R)-4-aminocyclohexyl]ethylamino}-1-hydroxyethyl]-2-pyridinecarbonitrile], the Emax at 10 µM in the test with L6-myotubes [1] is 50 to 75%; with L6-myotubes [2], less than 25%.
In the case of `CC(C)(NC[C@H](O)c1cncc(F)c1)[C@H]1CC[C@H](OCC(=O)O)CC1` [Compound 419], the values for the Emax at 10 µM in the test with L6-myotubes [1] and with L6-myotubes [2] were 50 to 75% and less than 25%, respectively.
As to `CC(C)(C[C@H]1CC[C@H](NC(=O)OC(C)(C)C)CC1)NC[C@H](O)c1cccc(F)c1` [Compound 420, (1R,4r)-4-{2-[(R)-2-(m-fluorophenyl)-2-hydroxyethylamino]-2-methylpropyl}cyclohexy-2-methyl-2-propanecarbamate], the Emax at 10 µM was in the range of 50 to 75% with L6-myotubes [1] and 25 to 50% in the test with L6-myotubes [2].
Regarding `CC(=O)N[C@H]1CC[C@@H](CC(C)(C)NC[C@H](O)c2cccc(C#N)n2)CC1` [Compound 421], the results for the Emax at 10 µM in the test with L6-myotubes [1] and in the test with L6-myotubes [2] were greater than 75% and less than 25%, respectively.
Regarding `CC(C)(C[C@H]1CC[C@@H](NS(C)(=O)=O)CC1)NC[C@H](O)c1cccc(C#N)n1` [Compound 422, 6-[(S)-2-{1,1-dimethyl-2-[(1s,4R)-4-(mesylamino)cyclohexyl]ethylamino}-1-hydroxyethyl]-2-pyridinecarbonitrile], the Emax at 10 µM in the test on L6-myotubes [1] was 50 to 75%; in the test with L6-myotubes [2], less than 25%.
The corresponding values for `CC(=O)N[C@H]1CC[C@@H](CC(C)(C)NC[C@@H](O)c2cccc(C#N)n2)CC1` [Compound 423] are less than 25% and less than 25%.
The corresponding values for `CC(C)(C[C@H]1CC[C@@H](NS(C)(=O)=O)CC1)NC[C@@H](O)c1cccc(C#N)n1` [Compound 424, 6-[(R)-2-{1,1-dimethyl-2-[(1s,4S)-4-(mesylamino)cyclohexyl]ethylamino}-1-hydroxyethyl]-2-pyridinecarbonitrile] are 25 to 50% and less than 25%.
On the same counts, the results for `CC(=O)N[C@H]1CC[C@H](CC(C)(C)NC[C@H](O)c2cccc(C#N)n2)CC1` [Compound 425] are greater than 75% and 25 to 50%.
Regarding `CC(C)(C[C@H]1CC[C@H](NS(C)(=O)=O)CC1)NC[C@H](O)c1cccc(C#N)n1` [Compound 426, 6-[(S)-2-{1,1-dimethyl-2-[(1r,4S)-4-(mesylamino)cyclohexyl]ethylamino}-1-hydroxyethyl]-2-pyridinecarbonitrile], the results for the Emax at 10 µM in the test on L6-myotubes [1] and in the test on L6-myotubes [2] were greater than 75% and less than 25%, respectively.
For `CC(=O)N[C@H]1CC[C@H](CC(C)(C)NC[C@@H](O)c2cccc(C#N)n2)CC1` [Compound 427], the Emax at 10 µM in the test on L6-myotubes [1] and with L6-myotubes [2] was less than 25% throughout.
Regarding `CC(C)(C[C@H]1CC[C@H](NS(C)(=O)=O)CC1)NC[C@@H](O)c1cccc(C#N)n1` [Compound 428, 6-[(R)-2-{1,1-dimethyl-2-[(1r,4R)-4-(mesylamino)cyclohexyl]ethylamino}-1-hydroxyethyl]-2-pyridinecarbonitrile], the Emax at 10 µM in the test on L6-myotubes [1] and in the test with L6-myotubes [2] was less than 25% each time.
Regarding `CC(C)(C[C@H]1CC[C@H](NC(=O)C(C)(C)C)CC1)NC[C@H](O)c1cccc(F)c1` [Compound 429], the results for the Emax at 10 µM in the test with L6-myotubes [1] and with L6-myotubes [2] were greater than 75% and 25 to 50%, respectively.
Turning to `CN(C)C(=O)N[C@H]1CC[C@H](CC(C)(C)NC[C@H](O)c2cccc(F)c2)CC1` [Compound 430, (R)-2-{1,1-dimethyl-2-[(1r,4R)-4-(3,3-dimethylureido)cyclohexyl]ethylamino}-1-(m-fluorophenyl)-1-ethanol], the Emax at 10 µM was greater than 75% in the test on L6-myotubes [1] and 50 to 75% in the test with L6-myotubes [2].
Regarding `CC(C)(C[C@H]1CC[C@H](NC(=O)C2CCC2)CC1)NC[C@H](O)c1cccc(F)c1` [Compound 431], the Emax at 10 µM with L6-myotubes [1] was greater than 75%; with L6-myotubes [2] it was 50 to 75%.
`CC(C)(C[C@H]1CC[C@H](NC(=O)C2CC2)CC1)NC[C@H](O)c1cccc(F)c1` [Compound 432]: the Emax at 10 µM with L6-myotubes [1] and in the test with L6-myotubes [2] was greater than 75% each time.
Consider `CC(C)(C[C@H]1CC[C@H](NC(=O)C(F)(F)F)CC1)NC[C@H](O)c1cccc(F)c1` [Compound 433], for which the “Biological example 2 (GU)” value in the test with L6-myotubes [1] was “+++ (If a compound at 10 μM shows activity of more than 75% of that of isoproterenol at 10 μM, the activity is denoted with +++)”. For the same molecule, the “Biological example 3 (CAMP)” value with L6-myotubes [2] is “+ (if it is between 50 and 25% it is denoted with +)”.
For `CC(=O)N[C@H]1CC[C@H](CC(C)(C)NC[C@H](O)c2cccnc2C)CC1` [Compound 434], the Emax at 10 µM with L6-myotubes [1] was greater than 75%; with L6-myotubes [2], less than 25%.
For the molecule `Cc1ncccc1[C@@H](O)CNC(C)(C)C[C@H]1CC[C@H](NS(C)(=O)=O)CC1` [Compound 435, (R)-2-{1,1-dimethyl-2-[(1r,4R)-4-(mesylamino)cyclohexyl]ethylamino}-1-(2-methyl-3-pyridyl)-1-ethanol], the results for the Emax at 10 µM in the test on L6-myotubes [1] and in the test with L6-myotubes [2] were 25 to 50% and less than 25%, respectively.

Values taken from US20260216294A1, “BETA 2-ADRENERGIC RECEPTOR AGONISTS FOR TREATMENT OR PREVENTION OF MUSCLE WASTING” (ATROGI AB, priority 2023, published 2026).
